Patent publication US8367606B2, “Method and compositions for prevention and treatment of diabetic and aged skin” (HealOr Ltd., priority 2005, dated 2013)

How the values were obtained:
[1] = system: primary mouse keratinocytes; experiment: Filaggrin expression in differentiating keratinocytes (Western blot of cytoskeletal fraction); type: cell-based; conditions: 50, 150 and 300 nM; 0.12 mM Ca2+
Method: Primary mouse keratinocytes were cultured in 0.05 mM Ca^+2 MEM and differentiation was induced by elevating Ca^+2 concentrations to 0.12 mM. Keratinocytes were treated with either PBS (control) or different concentrations (50, 150 and 300 nM) of troglitazone, a PPARγ activator. The cells were lysed and the cytoskeletal fraction was subjected to SDS-PAGE and blotted with anti-filaggrin antibody.

[2] = system: damaged skin from diabetic (STZ injected) C57BL/6J mice; experiment: Reconstruction of the hypodermis layer in damaged diabetic skin (H&E histology); type: in vivo; conditions: 7-9 days treatment; insulin 0.1 unit + peptide 1 μM, or adipsin 1 μM
Method: Damaged skin from diabetic (STZ injected) C57BL/6J mice was treated with either PBS (control); a mixture of insulin (0.1 unit) and the N-myristoylated PKCα pseudosubstrate peptide of SEQ ID NO: 1 (1 μM); or adipsin (1 μM) for 7-9 days. Skin biopsies were then collected and embedded in paraffin, and histological sections were performed and stained with H&E. The sections were analyzed for presence of the hypodermis layer presented as a continuous layer of adipocytes, and the percent of total animals per each group with fully reconstituted hypodermis is shown in FIGS. 11A-11B.

[3] = system: damaged skin of diabetic (STZ injected) C57BL/6J mice; experiment: Inflammatory response in damaged skin of diabetic mice (H&E histology, abscess formation and leukocytosis); type: in vivo; conditions: adiponectin 0.1 μg/ml for 7 days; non-treated control 90%; severe = both abscess and leukocytosis
Method: Damaged skin of diabetic (STZ injected) C57BL/6J mice was treated with either PBS (control) or adiponectin (0.1 μg/ml) for 7 days (total n=18). Thereafter, skin biopsies were collected, embedded in paraffin, and analyzed for inflammation by H&E histological staining. Inflammation was graded by abscess formation and excessive leukocytosis in the skin and proximal blood vessels, and severe inflammation was considered when both abscess and leukocytosis were apparent.
In the next step, damaged skin from diabetic (STZ injected) C57BL/6J mice was treated with either PBS (control); a mixture of insulin (0.1 unit) and the N-myristoylated PKCα pseudosubstrate peptide of SEQ ID NO: 1 (1 μM); or Copolymer-1 (Teva Pharmaceutical Industries, Israel), (55 μg/ml) for 9 days (n=6 per each group). […] Thereafter, skin biopsies were collected, embedded in paraffin, and analyzed for inflammation by H&E histological staining. Inflammation was graded as described above.

Cc1c(C)c2c(c(C)c1O)CCC(C)(COc1ccc(CC3SC(=O)NC3=O)cc1)O2 (stereo not drawn) [troglitazone, 5-(4-(6-hydroxy-2,5,7,8-tetramethylchroman-2-yl-methoxy)benzyl)-2,4-thiazolidinedione]
filaggrin expression (terminal differentiation marker, FIG. 12) [1]: upregulation of filaggrin expression

adipsin: adipokine, complement factor D secreted by adipocytes
reconstitution of the hypodermis layer (FIGS. 11A-11B) [2]: can reconstruct the hypodermal subcutaneous layer

B1: adiponectin: adipokine, a bioactive molecule secreted by adipocytes (protein, UniProt Q15848 19-244, looked up)
Adiponectin: ETTTQGPGVLLPLPKGACTGWMAGIPGHPGHNGAPGRDGRDGTPGEKGEKGDPGLIGPKGDIGETGVPGAEGPRGFPGIQGRKGEPGEGAYVYRSAFSVGLETYVTIPNMPIRFTKIFYNQQNHYDGSTGKFHCNIPGLYYFAYHITVYMKDVKVSLFKKDKAMLFTYDQYQENNVDQASGSVLLHLEVGDQVWLQVYGEGERNGLYADNDNDSTFTGFLLYHDTN
percent of animals exhibiting severe inflammation of the skin [3]: 20%
